# In PubChem BioAssay AID2060503 (Molecular Pharmacology Branch, DTP, NCI, 2025):
# Tested on: 817829-284-R-J1-PDC complex spheroids, viability
# Assay: Anticancer human tumor 817829-284-R-J1-PDC patient-derived colon adenocarcinoma cell line growth inhibition [GQUAD]
# Details: for viability, T/C: stronger effect = lower value
# Source text: DNA G-quadruplex Stabilizer Agents in Combinations in Complex Spheroids
# A high-throughput screen of multi-cell type tumor spheroids was designed to identify active combinations of DNA G-quadruplex stabilizer agents and targeted small molecules. Complex spheroids include a stromal component modeled by human endothelial cells (HUVEC) and fibroblasts modeled by human mesenchymal stem cells (MSCs). The concentration ranges selected for each drug and investigational agent were based upon clinically achievable concentrations if the clinical Cmax of the agent was known.
# Compounds. The drugs and investigational agents: pidnarulex (CX-5461; NSC782164), APTO-253 (NSC789042), BRACO-19 (NSC847499), peposertib (NSC802822), ceralasertib (NSC780249), elimusertib (NSC800525), camonsertib (NSC841442), AZD-1390 (NSC803789), olaparib (NSC753686), talazoparib (NSC767125), ART-558 (NSC835418), sotorasib (NSC818433), MRTX-1133 (NSC836407), SN-38 (NSC673596), topotecan (NSC609699), etoposide (NSC141540), doxorubicin (NSC123127), gemcitabine (NSC613327), 5-fluorouracil (NSC19893), paclitaxel (NSC125973), vemurafenib (NSC761431), panobinostat (NSC761190), R-306465 (JNJ-16241199; NSC773264), adavosertib (NSC754352), TP-3654 (NSC805149), carboplatin (NSC241240), KSQ-4279 (NSC840948), and staurosporine (NSC755774) were obtained from the National Cancer Institute (NCI) Developmental Therapeutics Program Chemical Repository (34). The FDA-approved anticancer drug set is available from the NCI Developmental Therapeutics Program. […] The stock solutions were prepared in dimethyl sulfoxide (DMSO, Sigma-Aldrich, St. Louis, MO, cat. D2650) at 800-fold the tested concentration and stored at -70 degrees C prior to their use. All drugs and investigational agents were tested over a range starting from a high concentration at or near the clinical Cmax and decreasing in half-log increments. If the clinical Cmax for an agent had not been determined, the highest concentration tested was 10 microM.
# 2.3 Cell Culture. All cells were maintained in an incubator at 37 degrees C and 5% CO2 with 95% humidity. The PDC lines were cultured according to standard operating procedures established by the NCI PDMR. All PDCs were thawed and cultured in Matrigel-coated flasks prepared with a working solution of 1X Ham's F-12 nutrient mix, without supplementation (Invitrogen, cat. 11765054), 100 U/mL penicillin-streptomycin (Invitrogen, cat. 15140122), and 2.5% Matrigel (Corning Inc., cat. 354248) for the first three passages. The 857933-349-R-J2-PDC line was cultured in 6C/Colon 1B media, which includes advanced DMEM/F-12 (Thermo Fisher Scientific, cat. 12634028), 10 mM HEPES (Thermo Fisher Scientific, cat. 15630080), 1X GlutaMAX supplement (Thermo Fisher Scientific, cat. 35050061), 0.1 mg/mL primocin (InvivoGen, cat. ant-pm-2), 10% defined fetal bovine serum, heat inactivated (HyClone Laboratories Inc., cat. SH30070.03HI), 50% L-WRN conditioned media (ATCC, cat. CRL-3276), 1.25 mM N-Acetyl-L-cysteine (Sigma-Aldrich, cat. A9165), 10 mM nicotinamide (Sigma-Aldrich, cat. N0636), 1X B-27 supplement (Thermo Fisher Scientific, cat. 17504044), 1X N-2 supplement (Thermo Fisher Scientific, cat. 17502048), 10 microM Y-27632 dihydrochloride (Tocris Bioscience, cat. 1254), and 50 ng/mL human EGF recombinant protein (Thermo Fisher Scientific, cat. PHG0311). The 485176-168-R4-J1-PDC line was cultured in Panc media, which includes all 6C/Colon 1B media components plus 100 ng/mL human FGF-10 (Thermo Fisher Scientific, cat. 100-26), 500 nM SB-431542 (Selleckchem, cat. S1067), and gastrin (Tocris, cat. 3006).
# […]
# [1] = curve of first compound, second compound 0.0316 µM
# [2] = curve of first compound, second compound 0.1 µM
# [3] = curve of first compound, second compound 0.316 µM
# [4] = curve of first compound, second compound 1 µM
# [5] = curve of first compound, second compound 3.16 µM
# [6] = curve of first compound, second compound 10 µM
# [7] = second compound 0.0316 µM, first compound 0.0316 µM
# [8] = second compound 0.0316 µM, first compound 0.1 µM
# [9] = second compound 0.0316 µM, first compound 0.316 µM
# [10] = second compound 0.0316 µM, first compound 1 µM
# [11] = second compound 0.0316 µM, first compound 3.16 µM
# [12] = second compound 0.0316 µM, first compound 10 µM
# [13] = second compound 0.1 µM, first compound 0.0316 µM
# [14] = second compound 0.1 µM, first compound 0.1 µM
# [15] = second compound 0.1 µM, first compound 0.316 µM
# [16] = second compound 0.1 µM, first compound 1 µM
# [17] = second compound 0.1 µM, first compound 3.16 µM
# [18] = second compound 0.1 µM, first compound 10 µM
# [19] = second compound 0.316 µM, first compound 0.0316 µM
# [20] = second compound 0.316 µM, first compound 0.1 µM
# [21] = second compound 0.316 µM, first compound 0.316 µM
# [22] = second compound 0.316 µM, first compound 1 µM
# [23] = second compound 0.316 µM, first compound 3.16 µM
# [24] = second compound 0.316 µM, first compound 10 µM
# [25] = second compound 1 µM, first compound 0.0316 µM
# [26] = second compound 1 µM, first compound 0.1 µM
# [27] = second compound 1 µM, first compound 0.316 µM
# [28] = second compound 1 µM, first compound 1 µM
# [29] = second compound 1 µM, first compound 3.16 µM
# [30] = second compound 1 µM, first compound 10 µM
# [31] = second compound 3.16 µM, first compound 0.0316 µM
# [32] = second compound 3.16 µM, first compound 0.1 µM
# [33] = second compound 3.16 µM, first compound 0.316 µM
# [34] = second compound 3.16 µM, first compound 1 µM
# [35] = second compound 3.16 µM, first compound 3.16 µM
# [36] = second compound 3.16 µM, first compound 10 µM
# [37] = second compound 10 µM, first compound 0.0316 µM
# [38] = second compound 10 µM, first compound 0.1 µM
# [39] = second compound 10 µM, first compound 0.316 µM
# [40] = second compound 10 µM, first compound 1 µM
# [41] = second compound 10 µM, first compound 3.16 µM
# [42] = second compound 10 µM, first compound 10 µM
# 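Also: spheroids exposed to agents for 7 days before readout.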
# 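For viability, T/C in this document: percent viability relative to DMSO vehicle control taken as 100%.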
smiles,measurement,setting,value
CN(C)c1ccc(Nc2c3ccc(NC(=O)CCN4CCCC4)cc3nc3cc(NC(=O)CCN4CCCC4)ccc23)cc1,"viability, T/C",compound 0.0316 µM,102% [middle of 12 runs]
same,"viability, T/C",compound 0.1 µM,99.2% [middle of 12 runs]
same,"viability, T/C",compound 0.316 µM,97.7% [middle of 12 runs]
same,"viability, T/C",compound 1 µM,102% [middle of 12 runs]
same,"viability, T/C",compound 3.16 µM,100% [middle of 12 runs]
same,"viability, T/C",compound 10 µM,93.7% [middle of 12 runs]
same,IC50,"compound alone, run of 02/26/2024",> 10 µM
C=CC(=O)N1CCN(c2nc(=O)n(-c3c(C)ccnc3C(C)C)c3nc(-c4c(O)cccc4F)c(F)cc23)C(C)C1 (stereo unspecified) + CN(C)c1ccc(Nc2c3ccc(NC(=O)CCN4CCCC4)cc3nc3cc(NC(=O)CCN4CCCC4)ccc23)cc1,IC50,[1],> 10 µM
same,IC50,[2],> 10 µM
same,IC50,[3],> 10 µM
same,IC50,[4],> 10 µM
same,IC50,[5],> 10 µM
same,IC50,[6],7.18 µM
same,"viability, T/C",[7],101%
same,"viability, T/C",[8],103%
same,"viability, T/C",[9],97.5%
same,"viability, T/C",[10],99.4%
same,"viability, T/C",[11],83.7%
same,"viability, T/C",[12],80%
same,"viability, T/C",[13],99.7%
same,"viability, T/C",[14],103%
same,"viability, T/C",[15],104%
same,"viability, T/C",[16],98.7%
same,"viability, T/C",[17],106%
same,"viability, T/C",[18],85.4%
same,"viability, T/C",[19],91.3%
same,"viability, T/C",[20],107%
same,"viability, T/C",[21],89.6%
same,"viability, T/C",[22],108%
same,"viability, T/C",[23],86.3%
same,"viability, T/C",[24],76.2%
same,"viability, T/C",[25],96.2%
same,"viability, T/C",[26],107%
same,"viability, T/C",[27],92.3%
same,"viability, T/C",[28],105%
same,"viability, T/C",[29],92.2%
same,"viability, T/C",[30],72.1%
same,"viability, T/C",[31],95.6%
same,"viability, T/C",[32],97.5%
same,"viability, T/C",[33],98.8%
same,"viability, T/C",[34],92.3%
same,"viability, T/C",[35],92.3%
same,"viability, T/C",[36],69.3%
same,"viability, T/C",[37],101%
same,"viability, T/C",[38],105%
same,"viability, T/C",[39],92.7%
same,"viability, T/C",[40],92.3%
same,"viability, T/C",[41],84.3%
same,"viability, T/C",[42],36.4%
Cc1cccc(N(C)C(=O)C2C(O)CCN2c2nc(C)cc(C(F)(F)F)c2C#N)c1 (stereo unspecified) + Cc1[nH]c2ccc(F)cc2c1-c1nc2c3cccnc3c3ncccc3c2[nH]1,IC50,[1],> 10 µM
same,IC50,[2],> 10 µM
same,IC50,[3],> 10 µM
same,IC50,[4],> 10 µM
same,IC50,[5],> 10 µM
same,IC50,[6],> 10 µM
same,"viability, T/C",[7],103%
same,"viability, T/C",[8],86.2%
same,"viability, T/C",[9],99.9%
same,"viability, T/C",[10],78%
same,"viability, T/C",[11],97.6%
same,"viability, T/C",[12],95.3%
same,"viability, T/C",[13],78.9%
same,"viability, T/C",[14],97.7%
same,"viability, T/C",[15],89.7%
same,"viability, T/C",[16],102%
same,"viability, T/C",[17],101%
same,"viability, T/C",[18],105%
same,"viability, T/C",[19],90.9%
same,"viability, T/C",[20],116%
same,"viability, T/C",[21],99.3%
same,"viability, T/C",[22],115%
same,"viability, T/C",[23],111%
same,"viability, T/C",[24],100%
same,"viability, T/C",[25],96.6%
same,"viability, T/C",[26],103%
same,"viability, T/C",[27],106%
same,"viability, T/C",[28],98.7%
same,"viability, T/C",[29],100%
same,"viability, T/C",[30],90%
same,"viability, T/C",[31],94.9%
same,"viability, T/C",[32],96.1%
same,"viability, T/C",[33],82.5%
same,"viability, T/C",[34],99.2%
same,"viability, T/C",[35],98.2%
same,"viability, T/C",[36],96.7%
same,"viability, T/C",[37],83.3%
same,"viability, T/C",[38],96.4%
same,"viability, T/C",[39],96.4%
same,"viability, T/C",[40],55.3%
same,"viability, T/C",[41],82.6%
same,"viability, T/C",[42],63.2%
